These compounds were tested on AsPC-1/Cas9 cell line (human pancreatic cancer cell line AsPC-1) (assay: AsPC-1/Cas9 growth inhibition assay). Conditions: 5 days culture, CellTiter Glo 2.0, read-out: IC50 (Absolute IC50, 50% inhibition of cell growth).
Format: cell-based
Method: Human pancreatic cancer cell line AsPC-1 (ATCC Number CRL1682) was infected with Edit-R Lentiviral hCMV-Blast-Cas9 Nuclease Particle (Dharmacon, VCAS10124) in the presence of 8 μg/ml of Hexadimethrine bromide (Sigma, H9268), and after 24 hours it was exposed to 10 μg/ml of Blastcidin S (Thermo, A11139) to remove the uninfected cells, thereby establishing an AsPC-1/Cas9 cell line. The cells were maintenance cultured in a 5% CO2 incubator (37° C.) using RPMI-1640 (FujiFilm-Wako Pure Chemical Industries) containing 10% fetal bovine serum (FBS: SIGMA 173012) and penicillin/streptomycin (FujiFilm-Wako Pure Chemical Industries) (hereunder referred to simply as “culture medium”). After adding 25 μL of AsPC-1/Cas9 cell suspension prepared to 3.2×10^4 cells/mL using culture medium into each well of a 384-well plate (Greiner 781091), the cells were cultured overnight in a 5% CO2 incubator (37° C.). On the following day, 25 μL of the test substance diluted with culture medium was added to each well, and culturing was continued for 5 days in a 5% CO2 incubator (37° C.). Next, 25 μL of CellTiter Glo™ 2.0 (Promega) was added to each well, and the plate contents were mixed for 5 minutes using a plate mixer. The plate was stationed for 10 minutes at room temperature while shielded from light, and then the luminous intensity was measured with an ENVISION™ (Perkin-Elmer). The luminescence value of the wells with addition of test substance was determined as a relative value, with 100% as the luminescence value of the wells with cells but without addition of the test substance and 0% as the luminescence value of the wells without cells. A plot of test substance concentration against luminescence value % approximated a 4-parameter logistic curve, and the test substance concentration necessary for 50% inhibition of cell growth (Absolute IC50) was calculated, and is shown in Table 10. In Table 10, the antibodies listed as “CEACAM6_#84.7” are the anti-CEACAM6 antibody of Example 301-1, the antibodies listed as “003” are the anti-folate receptor α antibody of Example 301-2, and the antibodies listed as “345A12” are the anti-mesothelin antibody of Example 301-3.
According the same method as in the AsPC-1/Cas9 growth inhibition assay described in Example 313 above, the test substance concentration necessary for 50% inhibition of cell growth (Absolute IC50) in the ADC described in Example 318 was calculated and is shown in Table 12.

**Q.** How did the IC50 turn out when `Cc1cc(-c2ccc3nc(N)nc(C(CO)(OC4CC4)c4cccs4)c3c2)cn(C)c1=O` (stereo not shown) [Example 15, 5-(2-Amino-4-(1-cyclopropoxy-2-hydroxy-1-(thiophen-2-yl)ethyl)quinazolin-6-yl)-1,3-dimethylpyridin-2(1H)-one] was run?
**A.** Its IC50 is 0.039 nM.

**Q.** `Cc1cc(-c2ccc3nc(NS(C)(=O)=O)nc(C(CO)(CC4CCC4)c4ccccc4)c3c2)cn(C)c1=O` (stereo not shown) [Example 8, N-(4-(1-Cyclobutyl-3-hydroxy-2-phenylpropan-2-yl)-6-(1,5-dimethyl-6-oxo-1,6-dihydropyridin-3-yl)quinazolin-2-yl)methanesulfonamide] was tested. Which IC50 did it give?
**A.** Its IC50 is 0.043 nM.

**Q.** How did the IC50 turn out when `Cc1cc(-c2ccc3nc(CNS(C)(=O)=O)nc(C(CO)(OC4CC4)c4ccccc4)c3c2)cn(C)c1=O` (stereo not shown) [Example 18, N-((4-(1-Cyclopropoxy-2-hydroxy-1-phenylethyl)-6-(1,5-dimethyl-6-oxo-1,6-dihydropyridin-3-yl)quinazolin-2-yl)methyl)methanesulfonamide] was run?
**A.** Its IC50 is 0.047 nM.

**Q.** How did the IC50 turn out when `CCOCCC(CO)(c1ccccn1)c1nc(N)nc2ccc(-c3cc(C)c(=O)n(C)c3)cc12` (stereo not shown) [Example 12, 5-(2-Amino-4-(4-ethoxy-1-hydroxy-2-(pyridin-2-yl)butan-2-yl)quinazolin-6-yl)-1,3-dimethylpyridin-2(1H)-one] was run?
**A.** Its IC50 is 0.038 nM.

**Q.** With `Cc1cc(-c2ccc3nc(N=S(C)(C)=O)nc(C(CO)(CC4CCOCC4)c4ccccc4)c3c2)cn(C)c1=O` (stereo not shown) [Example 6] as the compound, how does the IC50 read?
**A.** Its IC50 is 0.029 nM.

**Q.** With “2-Cyclopropoxy-2-(2-(4-(((2S,5R)-2,5-dimethylpiperazin-1-yl)methyl)piperidin-1-yl)-6-(4-methoxy-1-methyl-6-oxo-1,6-dihydropyridin-3-yl)quinazolin-4-yl)-2-phenylethyl methyl(2-(methylamino)ethyl)carbamate [Example 34]” as the compound, how does the IC50 read?
**A.** The IC50 was 0.083 nM.

**Q.** Which IC50 does the source give for `CN1CCC(Oc2nc(C(CO)(OC3CC3)c3ccccc3)c3cc(-c4cn(C)c(=O)c5c4COC5)ccc3n2)CC1` (stereo not shown) [Example 14, 7-(4-(1-Cyclopropoxy-2-hydroxy-1-phenylethyl)-2-((1-methylpiperidin-4-yl)oxy)quinazolin-6-yl)-5-methyl-3,5-dihydrofuro[3,4-c]pyridine-4(1H)-one] here?
**A.** Its IC50 is 0.038 nM.

**Q.** For `COCCC(CO)(c1ccccc1)c1nc(N=S(C)(C)=O)nc2ccc(-c3cc(C)c(=O)n(C)c3)cc12` (stereo not shown) [Example 22, 5-(2-((Dimethyl(oxo)-16-sulfanylidene)amino)-4-(1-hydroxy-4-methoxy-2-phenylbutan-2-yl)quinazolin-6-yl)-1,3-dimethylpyridin-2(1H)-one], which IC50 is on record?
**A.** The IC50 was 1.6 nM.

**Q.** `Cc1cc(-c2ccc3nc(N=S(C)(C)=O)nc(C(CO)(OC(C)C)c4ccccc4)c3c2)cn(C)c1=O` (stereo not shown) [Example 19, 5-(2-((Dimethyl(oxo)-16-sulfanylidene)amino)-4-(2-hydroxy-1-isopropoxy-1-phenylethyl)quinazolin-6-yl)-1,3-dimethylpyridin-2(1H)-one] was tested. Which IC50 did it give?
**A.** Its IC50 is 0.031 nM.

**Q.** How did the IC50 turn out when `Cc1cc(-c2ccc3nc(N=S(C)(C)=O)nc(C(CO)(Cc4ccccc4)c4ccccc4)c3c2)cn(C)c1=O` (stereo not shown) [Example 23, 5-(2-((Dimethyl(oxo)-16-sulfanylidene)amino)-4-(1-hydroxy-2,3-diphenylpropan-2-yl)quinazolin-6-yl)-1,3-dimethylpyridin-2(1H)-one] was run?
**A.** Its IC50 is 0.034 nM.

**Q.** With `Cc1cc(-c2ccc3nc(N=S(C)(C)=O)nc(C(CO)(OC4CCC4)c4ccccc4)c3c2)cn(C)c1=O` (stereo not shown) [Example 13, 5-(4-(1-Cyclobutoxy-2-hydroxy-1-phenylethyl)-2-((dimethyl (oxo)-16-sulfanylidene)amino)quinazolin-6-yl)-1,3-dimethylpyridin-2(1H)-one] as the compound, how does the IC50 read?
**A.** The IC50 was 0.043 nM.

**Q.** `Cc1cc(-c2ccc3nc(N=S(C)(C)=O)nc(C(CO)(CC(C)C)c4ccccc4)c3c2)cn(C)c1=O` (stereo not shown) [Example 7, 5-(2-((Dimethyl(oxo)-16-sulfanylidene)amino)-4-(1-hydroxy-4-methyl-2-phenylpentan-2-yl)quinazolin-6-yl)-1,3-dimethylpyridin-2(1H)-one] was tested. Which IC50 did it give?
**A.** The IC50 was 0.051 nM.

**Q.** `Cc1cc(-c2ccc3nc(N)nc(C(CO)(Cc4ccccc4)c4ncccn4)c3c2)cn(C)c1=O` (stereo not shown) [Example 24, 5-(2-Amino-4-(1-hydroxy-3-phenyl-2-(pyrimidin-2-yl)propan-2-yl)quinazolin-6-yl)-1,3-dimethylpyridin-2(1H)-one] was tested. Which IC50 did it give?
**A.** Its IC50 is 0.043 nM.

**Q.** How did the IC50 turn out when `CCn1c(=O)nc(C(CO)(OC)c2ccccc2)c2cc(-c3cc(C)c(=O)n(C)c3)ccc21` (racemic) [Example 17, 6-(1,5-Dimethyl-6-oxo-1,6-dihydropyridin-3-yl)-1-ethyl-4-(2-hydroxy-1-methoxy-1-phenylethyl)quinazoline-2(1H)-one] was run?
**A.** Its IC50 is 0.04 nM.

**Q.** With `Cc1cc(-c2ccc3cc(N=S(C)(C)=O)nc(C(CO)(OC4CC4)c4ccccc4)c3c2)cn(C)c1=O` (stereo not shown) [Example 9, 5-(1-(1-Cyclopropoxy-2-hydroxy-1-phenylethyl)-3-((dimethyl(oxo)-16-sulfanylidene)amino)isoquinolin-7-yl)-1,3-dimethylpyridin-2(1H)-one] as the compound, how does the IC50 read?
**A.** The IC50 was 0.075 nM.

**Q.** Which IC50 does the source give for `CCCC(CO)(c1ccccn1)c1[nH]c(=O)cc2ccc(-c3cc(C)c(=O)n(C)c3)cc12` (stereo not shown) [Example 11, 7-(1,5-Dimethyl-6-oxo-1,6-dihydropyridin-3-yl)-1-(1-hydroxy-2-(pyridin-2-yl)pentan-2-yl)isoquinoline-3(2H)-one] here?
**A.** Its IC50 is 0.039 nM.

**Q.** With `Cc1cc(-c2ccc3nc(NS(C)(=O)=O)nc(C(CO)(CC4CC4)c4ccccn4)c3c2)cn(C)c1=O` (stereo not shown) [Example 5, N-(4-(1-Cyclopropyl-3-hydroxy-2-(pyridin-2-yl)propan-2-yl)-6-(1,5-dimethyl-6-oxo-1,6-dihydropyridin-3-yl)quinazolin-2-yl)methanesulfonamide] as the compound, how does the IC50 read?
**A.** The IC50 was 0.035 nM.

**Q.** How did the IC50 turn out when “4-(2-(4-Amino-4-methyl-[1,4′-bipiperidin]-1′-yl)-4-(1-cyclopropoxy-2-hydroxy-1-phenylethyl)quinazolin-6-yl)-6-methyl-1,6-dihydro-7H-pyrrolo[2,3-c]pyridin-7-one [Example 27]” was run?
**A.** Its IC50 is under 0.015 nM.

**Q.** Which IC50 does the source give for `CCOC(CO)(c1ccccc1)c1nc(C(N)=O)cc2ccc(-c3cc(C)c(=O)n(C)c3)cc12` (stereo not shown) [Example 16, 7-(1,5-Dimethyl-6-oxo-1,6-dihydropyridin-3-yl)-1-(1-ethoxy-2-hydroxy-1-phenylethyl)isoquinoline-3-carboxamide] here?
**A.** The IC50 was 0.035 nM.

**Q.** For `Cc1cc(-c2ccc3nc(NC(=O)N4CC(O)C4)nc(C(CO)(OC4CC4)c4ccccc4)c3c2)cn(C)c1=O` (stereo not shown) [Example 10, N-(4-(1-Cyclopropoxy-2-hydroxy-1-phenylethyl)-6-(1,5-dimethyl-6-oxo-1,6-dihydropyridin-3-yl)quinazolin-2-yl)-3-hydroxyazetidine-1-carboxamide], which IC50 is on record?
**A.** Its IC50 is 0.036 nM.

**Q.** With `COc1ccc(CC(CO)(c2ccccn2)c2nc(N=S(C)(C)=O)nc3ccc(-c4cc(C)c(=O)n(C)c4)cc23)cc1F` (stereo not shown) [Example 21, 5-(2-((Dimethyl(oxo)-16-sulfanylidene)amino)-4-(1-(3-fluoro-4-methoxyphenyl)-3-hydroxy-2-(pyridin-2-yl)propan-2-yl)quinazolin-6-yl)-1,3-dimethylpyridin-2(1H)-one] as the compound, how does the IC50 read?
**A.** The IC50 was 0.061 nM.

**Q.** `Cc1cc(-c2ccc3nc(N)nc(C(CO)(CC4CC4)c4cccnc4)c3c2)cn(C)c1=O` (stereo not shown) [Example 20, 5-(2-Amino-4-(1-cyclopropyl-3-hydroxy-2-(pyridin-3-yl)propan-2-yl)quinazolin-6-yl)-1,3-dimethylpyridin-2(1H)-one] was tested. Which IC50 did it give?
**A.** Its IC50 is 0.035 nM.

Reference: patent publication US20240148895A1, “ANTIBODY-DRUG CONJUGATE” (Eisai R&D Management Co., Ltd., priority 2022, published 2024)
